Experimental data taken from publication PMC8123576 (International Journal of Molecular Sciences, 2021).

How the values were obtained:
[1] = test system: A. flavus; assay: microbe, parasite or virus in culture; format: cell-based, Aspergillus flavus
[2] = test system: aflatoxin accumulation by A. flavus; assay: microbe, parasite or virus in culture; format: cell-based, Aspergillus flavus
[3] = Aspergillus flavus, 100 µM, read-out: G.I. (%) (A. flavus growth inhibition)
[4] = Aspergillus flavus, read-out: A.I. (%) (aflatoxin accumulation inhibition)

Compound: NC(=S)NN=Cc1cccc(O)c1O [2,3‐dihydroxybenzaldehyde thiosemicarbazone]
- G.I. (%) (A. flavus growth inhibition) ([1]; 50 µM): 53,0%

Compound: CC(=O)c1ccco1 [2-acetyl-furan]
- activity of parent compounds on aflatoxin biosynthesis [2]: fundamentally inactive

Compound: CC(=O)c1cccs1 [2-acetyl-thiophene]
- activity of parent compounds on aflatoxin biosynthesis [2]: fundamentally inactive

Compound: CC(=NNC(N)=S)c1ccco1 [2-acfurTS, 2-acetylfuranthiosemicarbazone]
- impact on fungal growth ([1]; 10 to 100 µM, complexes compared with their ligand): modest inhibitory activity
- maximum aflatoxin accumulation inhibition [2]: ≤ 28.7%

Compound: CCCCCC=CC=NNC(N)=S [2‐Octenal thiosemicarbazone]
- G.I. (%) (A. flavus growth inhibition) ([1]; 50 µM): 93,0%
- G.I. (%) (A. flavus growth inhibition) ([1]; 100 µM): 96,0%

Compound: O=C1c2ccccc2C(=O)c2cc(CO)ccc21 [2‐hydroxymethyl‐anthraquinone]
- G.I. (%) (A. flavus growth inhibition) ([1]; 100 µM): 62,0%

Compound: CC(C)c1ccccc1C=NNC(N)=S [2‐isopropylbenzaldehyde thiosemicarbazone]
- A.I. (%) (aflatoxin accumulation inhibition) ([2]; 50 µM): 67,0%
- A.I. (%) (aflatoxin accumulation inhibition) ([2]; 100 µM): 97,0%

Compound: NC(=S)NN=CCCc1ccccc1 [3‐Phenylpropanal thiosemicarbazone]
- G.I. (%) (A. flavus growth inhibition) ([1]; 50 µM): 100%
- G.I. (%) (A. flavus growth inhibition) ([1]; 100 µM): 107,0%

Compound: CC(C)c1cccc(C=NN(C)C(N)=S)c1 [3‐isopropyl benzaldehyde‐2‐methyl‐thiosemicarbazone]
- G.I. (%) (A. flavus growth inhibition) ([1]; 100 µM): 70,6%
- A.I. (%) (aflatoxin accumulation inhibition) ([2]; 100 µM): 62,7%

Compound: CCC(/C=C/c1ccc(OC)cc1)=NNC(N)=S [(E)‐1‐(4‐methoxyphenyl)‐1‐pentene‐3‐one‐3‐thiosemicarbazone]
- G.I. (%) (A. flavus growth inhibition) ([1]; 50 µM): 62,0%
- G.I. (%) (A. flavus growth inhibition) ([1]; 100 µM): 74,0%

Compound: NC(=S)NN=C(c1ccccc1)c1ccccc1 [Benzophenone thiosemicarbazone]
- inhibition at 100 µM [1, 3]: 53%

Compound: CC12CCC(C(=NNC(N)=S)C1=NNC(N)=S)C2(C)C (centres unmarked) [Camphorquinone bis thiosemicarbazone]
- G.I. (%) (A. flavus growth inhibition) ([1]; 100 µM): 58,0%

Compound: NC(=S)N/N=C\C=C\c1ccccc1 [Cinnamaldehyde thiosemicarbazone]
- inhibition at 100 µM [1, 3]: 56%
- inhibition at 50 µM [2, 4]: 73.1%
- inhibition at 100 µM [2, 4]: 79%

Compound: CC(C)=CCC/C(C)=C/C=N/NC(N)=S [Citral thiosemicarbazone]
- G.I. (%) (A. flavus growth inhibition) ([1]; 100 µM): 57,0%

Compound: NC(=S)NN=C1CCCCC1 [Cyclohexanone thiosemicarbazone]
- G.I. (%) (A. flavus growth inhibition) ([1]; 50 µM): 80,0%
- G.I. (%) (A. flavus growth inhibition) ([1]; 100 µM): 95,0%

Compound: CCCCCCCCCC=NNC(N)=S [Decanal thiosemicarbazone]
- G.I. (%) (A. flavus growth inhibition) ([1]; 50 µM): 96,0%
- G.I. (%) (A. flavus growth inhibition) ([1]; 100 µM): 96,0%
- A.I. (%) (aflatoxin accumulation inhibition) ([2]; 100 µM): 62,0%

Compound: CCCCCC1=C(C)CCC1=NNC(N)=S [Dihydrojasmone thiosemicarbazone]
- A.I. (%) (aflatoxin accumulation inhibition) ([2]; 50 µM): 51,5%
- A.I. (%) (aflatoxin accumulation inhibition) ([2]; 100 µM): 63,2%

Compound: NC(=S)NN=c1cc(-c2ccccc2)oc2ccccc12 [Flavone thiosemicarbazone]
- G.I. (%) (A. flavus growth inhibition) ([1]; 50 µM): 100%
- G.I. (%) (A. flavus growth inhibition) ([1]; 100 µM): 100%

Compound: O=c1cc(-c2ccccc2)oc2ccccc12 [Flavone]
- inhibition at 50 µM ([1]; Aspergillus flavus, 50 µM, read-out: G.I. (%) (A. flavus growth inhibition)): 66%
- inhibition at 100 µM [1, 3]: 83%

Compound: CCC=CCC1=C(C)CCC1=NNC(N)=S [Jasmone thiosemicarbazone]
- A.I. (%) (aflatoxin accumulation inhibition) ([2]; 50 µM): 88,0%
- A.I. (%) (aflatoxin accumulation inhibition) ([2]; 100 µM): 90,0%

Compound: CCCCCCCCC=NNC(N)=S [Nonanal thiosemicarbazone]
- G.I. (%) (A. flavus growth inhibition) ([1]; 50 µM): 95,0%
- G.I. (%) (A. flavus growth inhibition) ([1]; 100 µM): 100%
- A.I. (%) (aflatoxin accumulation inhibition) ([2]; 50 µM): 91,0%
- A.I. (%) (aflatoxin accumulation inhibition) ([2]; 100 µM): 100%

Compound: CCCCCCCC=NNC(N)=S [Octanal thiosemicarbazone]
- G.I. (%) (A. flavus growth inhibition) ([1]; 50 µM): 82,0%
- G.I. (%) (A. flavus growth inhibition) ([1]; 100 µM): 93,0%
- A.I. (%) (aflatoxin accumulation inhibition) ([2]; 50 µM): 76,0%
- A.I. (%) (aflatoxin accumulation inhibition) ([2]; 100 µM): 96,0%

Compound: C=C(C)C1CC=C(C=NNC(N)=S)CC1 (centres unmarked) [Perillaldehyde thiosemicarbazone]
- G.I. (%) (A. flavus growth inhibition) ([1]; 100 µM): 73,5%
- A.I. (%) (aflatoxin accumulation inhibition) ([2]; 50 µM): 78,0%
- A.I. (%) (aflatoxin accumulation inhibition) ([2]; 100 µM): 87,3%

Compound: Cc1ccc(S(=O)(=O)OCc2ccc3c(c2)C(=O)c2ccccc2C3=O)cc1 [Tosylate ‐2‐methyleneanthraquinone]
- G.I. (%) (A. flavus growth inhibition) ([1]; 50 µM): 66,0%
- G.I. (%) (A. flavus growth inhibition) ([1]; 100 µM): 87,0%

Compound: CCCCCCCCCCC=NNC(N)=S [Undecanal thiosemicarbazone]
- G.I. (%) (A. flavus growth inhibition) ([1]; 50 µM): 78,0%
- G.I. (%) (A. flavus growth inhibition) ([1]; 100 µM): 62,0%
- A.I. (%) (aflatoxin accumulation inhibition) ([2]; 50 µM): 72,0%
- A.I. (%) (aflatoxin accumulation inhibition) ([2]; 100 µM): 93,0%

Compound: CN(C)C(=S)NN=CC=Cc1ccccc1.CN(C)C(=S)NN=CC=Cc1ccccc1.[Zn+2] [Zn(II) Cinnamaldehyde bis 4,4‐dimethyl thiosemicarbazonate]
- A.I. (%) (aflatoxin accumulation inhibition) ([2]; 50 µM): 75,0%
- A.I. (%) (aflatoxin accumulation inhibition) ([2]; 100 µM): 100%

Compound: Acetylthiophene bisthiosemicarbazone
- G.I. (%) (A. flavus growth inhibition) ([1]; 100 µM): 65,0%

Compound: Bisvanillin thiosemicarbazone
- G.I. (%) (A. flavus growth inhibition) ([1]; 100 µM): 57,0%
- A.I. (%) (aflatoxin accumulation inhibition) ([2]; 100 µM): 61,0%

Compound: Cu(I) chloroaqua flavone thiosemicarbazone
- G.I. (%) (A. flavus growth inhibition) ([1]; 50 µM): 60,0%
- G.I. (%) (A. flavus growth inhibition) ([1]; 100 µM): 79,0%

Compound: Cu(II) 1‐(3‐methoxyphenyl)heptan‐1‐one bisthiosemicarbazonate
- A.I. (%) (aflatoxin accumulation inhibition) ([2]; 50 µM): 82,5%
- A.I. (%) (aflatoxin accumulation inhibition) ([2]; 100 µM): 95,2%

Compound: Cu(II) 1‐isopropylbenzaldehyde bisthiosemicarbazonate
- A.I. (%) (aflatoxin accumulation inhibition) ([2]; 100 µM): 73,5%

Compound: Cu(II) 2,3,4‐trimethoxybenzaldehyde bisthiosemicarbazonate
- G.I. (%) (A. flavus growth inhibition) ([1]; 50 µM): 55,0%

Compound: Cu(II) 2,4‐decadienal bisthiosemicarbazonate
- G.I. (%) (A. flavus growth inhibition) ([1]; 50 µM): 91,0%
- G.I. (%) (A. flavus growth inhibition) ([1]; 100 µM): 80,0%

Compound: Cu(II) 2‐isopropyl benzaldehyde‐2‐methyl‐thiosemicarbazone di acetate
- G.I. (%) (A. flavus growth inhibition) ([1]; 50 µM): 90,0%
- G.I. (%) (A. flavus growth inhibition) ([1]; 100 µM): 95%
- A.I. (%) (aflatoxin accumulation inhibition) ([2]; 50 µM): 71,4%
- A.I. (%) (aflatoxin accumulation inhibition) ([2]; 100 µM): 86,7%

Compound: Cu(II) 2‐isopropylbenzaldehyde bisthiosemicarbazonate
- A.I. (%) (aflatoxin accumulation inhibition) ([2]; 50 µM): 65,9%
- A.I. (%) (aflatoxin accumulation inhibition) ([2]; 100 µM): 80,8%

Compound: Cu(II) 3,4,5‐trimethoxybenzaldehyde bisthiosemicarbazonate
- G.I. (%) (A. flavus growth inhibition) ([1]; 100 µM): 54,0%
- A.I. (%) (aflatoxin accumulation inhibition) ([2]; 100 µM): 76,0%

Compound: Cu(II) 3,4‐dimethoxybenzaldehyde bis 4,4'‐dimethyl thiosemicarbazonate
- A.I. (%) (aflatoxin accumulation inhibition) ([2]; 50 µM): 61,4%
- A.I. (%) (aflatoxin accumulation inhibition) ([2]; 100 µM): 84,6%

Compound: Cu(II) 3‐phenylpropanal bisthiosemicarbazonate
- G.I. (%) (A. flavus growth inhibition) ([1]; 50 µM): 69,0%
- G.I. (%) (A. flavus growth inhibition) ([1]; 100 µM): 68,0%

Compound: Cu(II) 4,7'‐dihydroxyflavone bisthiosemicarbazonate
- G.I. (%) (A. flavus growth inhibition) ([1]; 50 µM): 100%
- G.I. (%) (A. flavus growth inhibition) ([1]; 100 µM): 100%

Compound: Cu(II) Camphorquinone bisthiosemicarbazonate
- A.I. (%) (aflatoxin accumulation inhibition) ([2]; 100 µM): 53,0%

Compound: Cu(II) Dihydrojasmone bisthiosemicarbazonate
- A.I. (%) (aflatoxin accumulation inhibition) ([2]; 50 µM): 66,0%
- A.I. (%) (aflatoxin accumulation inhibition) ([2]; 100 µM): 80,0%

Compound: Cu(II) Quinolinecarboxaldehyde bisthiosemicarbazonate
- G.I. (%) (A. flavus growth inhibition) ([1]; 100 µM): 60,7%
- A.I. (%) (aflatoxin accumulation inhibition) ([2]; 50 µM): 55,7%
- A.I. (%) (aflatoxin accumulation inhibition) ([2]; 100 µM): 88,0

Compound: Cu(II) apocynin bisthiosemicarbazonate
- G.I. (%) (A. flavus growth inhibition) ([1]; 50 µM): 61,0%
- G.I. (%) (A. flavus growth inhibition) ([1]; 100 µM): 72,0%
- A.I. (%) (aflatoxin accumulation inhibition) ([2]; 50 µM): 52,0%
- A.I. (%) (aflatoxin accumulation inhibition) ([2]; 100 µM): 72,0%

Compound: Cu(II) benzaldehyde 4,4'‐dimethyl thiosemicarbazonate
- A.I. (%) (aflatoxin accumulation inhibition) ([2]; 100 µM): 67,0%

Compound: Cu(II) bisvanillin thiosemicarbazonate
- G.I. (%) (A. flavus growth inhibition) ([1]; 100 µM): 65,5%
- A.I. (%) (aflatoxin accumulation inhibition) ([2]; 50 µM): 53,0%
- A.I. (%) (aflatoxin accumulation inhibition) ([2]; 100 µM): 77,0%

Compound: Cu(II) cinnamaldehyde bisthiosemicarbazonate
- G.I. (%) (A. flavus growth inhibition) ([1]; 50 µM): 58,0%

Compound: Cu(II) fenchone bisthiosemicarbazonate
- G.I. (%) (A. flavus growth inhibition) ([1]; 100 µM): 57,0%
- A.I. (%) (aflatoxin accumulation inhibition) ([2]; 50 µM): 62,0%
- A.I. (%) (aflatoxin accumulation inhibition) ([2]; 100 µM): 84,0%

Compound: Cu(II) heptanal bisthiosemicarbazonate
- A.I. (%) (aflatoxin accumulation inhibition) ([2]; 50 µM): 62,8%
- A.I. (%) (aflatoxin accumulation inhibition) ([2]; 100 µM): 85,5%

Compound: Cu(II) jasmone bisthiosemicarbazonate
- G.I. (%) (A. flavus growth inhibition) ([1]; 100 µM): 74,3%
- A.I. (%) (aflatoxin accumulation inhibition) ([2]; 50 µM): 78,0%
- A.I. (%) (aflatoxin accumulation inhibition) ([2]; 100 µM): 97,0%

Compound: Cu(II) nonanal bisthiosemicarbazonate
- G.I. (%) (A. flavus growth inhibition) ([1]; 100 µM): 84,1%
- A.I. (%) (aflatoxin accumulation inhibition) ([2]; 50 µM): 90,0%
- A.I. (%) (aflatoxin accumulation inhibition) ([2]; 100 µM): 100%

Compound: Cu(II) syringaldehyde bisthiosemicarbazonate
- G.I. (%) (A. flavus growth inhibition) ([1]; 100 µM): 61,0%
- A.I. (%) (aflatoxin accumulation inhibition) ([2]; 100 µM): 61,0%

Compound: Dicyclohexanone thiosemicarbazone
- G.I. (%) (A. flavus growth inhibition) ([1]; 50 µM): 90,0%
- G.I. (%) (A. flavus growth inhibition) ([1]; 100 µM): 99,00%

Compound: Ni(II) perillaldehyde bisthiosemicarbazonate
- A.I. (%) (aflatoxin accumulation inhibition) ([2]; 50 µM): 85,2%
- A.I. (%) (aflatoxin accumulation inhibition) ([2]; 100 µM): 90,1%

Compound: Zn(II) 1‐isopropylbenzaldehyde bis thiosemicarbazone diacetate
- A.I. (%) (aflatoxin accumulation inhibition) ([2]; 50 µM): 69,3%
- A.I. (%) (aflatoxin accumulation inhibition) ([2]; 100 µM): 81,9%

Compound: Zn(II) 1‐isopropylbenzaldehyde bisthiosemicarbazonate
- A.I. (%) (aflatoxin accumulation inhibition) ([2]; 50 µM): 55,3%
- A.I. (%) (aflatoxin accumulation inhibition) ([2]; 100 µM): 100%

Compound: Zn(II) 2‐isopropylbenzaldehyde bisthiosemicarbazonate
- A.I. (%) (aflatoxin accumulation inhibition) ([2]; 50 µM): 93,8%
- A.I. (%) (aflatoxin accumulation inhibition) ([2]; 100 µM): 100%

Compound: Zn(II) (E)‐1‐(4‐methoxyphenyl)‐1‐pentene‐3‐one‐bis 3‐thiosemicarbazonate
- G.I. (%) (A. flavus growth inhibition) ([1]; 50 µM): 86,0%
- G.I. (%) (A. flavus growth inhibition) ([1]; 100 µM): 89,0%
